In US20120015961A1, “ISOTHIOUREA DERIVATIVES OR ISOUREA DERIVATIVES HAVING BACE1 INHIBITORY ACTIVITY” (SHIONOGI & CO., LTD., priority 2009, published 2012) one finds IC50 and mutagenicity data, which are given here for one compound.

Series [1] addresses T1, Recombinant human BACE1 (Homo sapiens, UniProt P56817).
T1 construct: purchased R&D Systems
Briefly: Assay of BACE1 inhibiting activity. The following applies: 50% inhibitory concentration against enzymatic activity, pH 5.0, 30° C., 3 hours. In kind it is biochemical. An outline of the steps:
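Recombinant human BACE1 (7.4 nM) incubated with 18 nM biotinylated Eu-cryptate peptide substrate in pH 5.0 sodium acetate, 3 h at 30 °C. Streptavidin-XL665 added, 1 h; TR-FRET 665/620 nm ratio gives activity, from which IC50 is calculated.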

In series [2] the test system is Neuroblastoma SH-SY5Y cells (SH/APPwt) with human wild-type β-APP excessively expressed. Briefly: Measurement of β-amyloid (Aβ) production inhibitory effect in cell. In kind it is cell-based. The note with it: Homo sapiens, SH-SY5Y, 24 h, amount needed to inhibit Aβ production by 50%, 24 hours incubation, Amyloid β1-40 HTRF. In short, it runs like this: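 SH-SY5Y cells overexpressing human wild-type β-APP exposed to compound for 24 h at 37 °C in 1% final DMSO. Secreted Aβ1-40 in supernatant measured by HTRF (overnight at 4 °C; 665/620 nm ratio). IC50 derived from at least six concentrations.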

Series [3] has as its system Salmonella typhimurium (TA98 and TA100 strain). The series is described as follows: FAT test. The note with it: TA98 and TA100, with and without metabolic activation system. The arrangement: key: (−) means that mutagenicity is negative; (+) means positive. The format is cell-based. The procedure:
Each 20 μL of freeze-stored Salmonella typhimurium (TA98 and TA100 strain) was inoculated in 10 mL of liquid nutrient medium (2.5% Oxoid nutrient broth No. 2), and the cultures were incubated at 37° C. under shaking for 10 hours. 9 mL of TA98 culture was centrifuged (2000×g, 10 minutes) to remove medium, and the bacteria was suspended in 9 mL of Micro F buffer (K2HPO4: 3.5 g/L, KH2PO4: 1 g/L, (NH4)2SO4: 1 g/L, trisodium citrate dehydrate: 0.25 g/L, MgSO4.7H2O: 0.1 g/L), and the suspension was added to 110 mL of Exposure medium (Micro F buffer containing Biotin: 8 μg/mL, histidine: 0.2 μg/mL, glucose: 8 mg/mL). 3.16 mL of TA100 culture was added to 120 mL of Exposure medium to prepare the test bacterial solution. […] The number of the yellow wells among the 48 total wells per dose was counted, and evaluated the mutagenicity by comparing with the negative control group. […]

T1 sequence (P56817 46-501): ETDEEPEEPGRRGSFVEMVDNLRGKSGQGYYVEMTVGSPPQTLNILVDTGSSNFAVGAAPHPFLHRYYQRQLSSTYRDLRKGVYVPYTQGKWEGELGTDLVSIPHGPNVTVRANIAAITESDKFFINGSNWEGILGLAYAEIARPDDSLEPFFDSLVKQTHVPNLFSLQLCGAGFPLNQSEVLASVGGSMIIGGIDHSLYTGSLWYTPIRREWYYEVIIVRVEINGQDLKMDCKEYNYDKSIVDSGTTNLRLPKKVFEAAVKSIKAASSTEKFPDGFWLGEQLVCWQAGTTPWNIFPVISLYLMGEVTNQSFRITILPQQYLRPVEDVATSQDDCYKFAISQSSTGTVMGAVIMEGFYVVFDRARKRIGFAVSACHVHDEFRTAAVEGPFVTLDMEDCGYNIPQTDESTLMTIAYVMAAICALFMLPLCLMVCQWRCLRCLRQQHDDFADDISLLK

For `CO/C(N)=N\C1(c2cccc(NC(=O)c3ccc(C#N)cn3)c2)CC1` [Compound 44], the IC50 in series [1] and in series [2] was at most 1 µM in each case. In series [3], the mutagenicity result is listed as “(−)”.
